In experiment [1] the target is T1, Prostaglandin G/H synthase 1 (Ovis aries) (UniProt P05979).
T1 sequence (whole entry): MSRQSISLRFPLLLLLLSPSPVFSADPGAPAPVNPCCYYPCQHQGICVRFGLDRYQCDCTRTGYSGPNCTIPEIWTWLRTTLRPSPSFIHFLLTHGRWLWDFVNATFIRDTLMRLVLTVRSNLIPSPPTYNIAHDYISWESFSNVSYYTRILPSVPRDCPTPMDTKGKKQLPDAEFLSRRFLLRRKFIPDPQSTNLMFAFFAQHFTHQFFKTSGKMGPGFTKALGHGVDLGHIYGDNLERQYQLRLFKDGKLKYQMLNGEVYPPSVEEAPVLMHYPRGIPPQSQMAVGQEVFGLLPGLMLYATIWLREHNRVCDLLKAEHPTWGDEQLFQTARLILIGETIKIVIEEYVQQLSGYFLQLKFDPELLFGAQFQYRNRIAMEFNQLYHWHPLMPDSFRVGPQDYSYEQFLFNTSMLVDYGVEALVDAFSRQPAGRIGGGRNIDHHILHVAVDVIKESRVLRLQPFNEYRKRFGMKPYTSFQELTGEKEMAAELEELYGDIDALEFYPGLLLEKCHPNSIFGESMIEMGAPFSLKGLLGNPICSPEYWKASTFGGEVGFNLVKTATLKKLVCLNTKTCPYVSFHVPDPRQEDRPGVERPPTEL
The experiment is described as follows: Reversible binding to ram seminal vesicle COX1 at 300 uM at 600 MHz and 37 degC by saturation transfer difference 1[H]NMR spectroscopy.

Experiment [2] concerns the target T2, Prostaglandin G/H synthase 2 (Homo sapiens, UniProt P35354).
T2 sequence (P35354 whole entry): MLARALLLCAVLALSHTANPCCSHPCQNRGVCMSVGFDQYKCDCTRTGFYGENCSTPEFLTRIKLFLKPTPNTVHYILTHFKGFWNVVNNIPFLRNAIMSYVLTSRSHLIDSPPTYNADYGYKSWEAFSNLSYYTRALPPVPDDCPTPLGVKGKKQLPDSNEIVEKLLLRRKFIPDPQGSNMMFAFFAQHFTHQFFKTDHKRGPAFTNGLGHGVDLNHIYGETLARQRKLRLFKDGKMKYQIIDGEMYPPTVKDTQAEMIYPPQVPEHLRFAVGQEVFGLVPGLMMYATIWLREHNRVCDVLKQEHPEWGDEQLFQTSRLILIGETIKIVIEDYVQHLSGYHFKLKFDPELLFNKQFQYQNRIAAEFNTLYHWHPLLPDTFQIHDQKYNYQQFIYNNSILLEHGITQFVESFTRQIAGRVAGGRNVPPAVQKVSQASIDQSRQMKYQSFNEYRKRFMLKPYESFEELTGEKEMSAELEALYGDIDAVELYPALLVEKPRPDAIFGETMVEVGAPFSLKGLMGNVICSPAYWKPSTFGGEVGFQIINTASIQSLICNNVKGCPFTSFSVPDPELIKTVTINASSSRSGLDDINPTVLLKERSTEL
The experiment is described as follows: Inhibition of human COX2 measured after pre-incubation of enzyme with compound.

Experiment [3] addresses T2, Prostaglandin G/H synthase 2. Put plainly: Instantaneous inhibition of human COX2 measured immediately after incubation of enzyme with compound.

SMILES strings stand for the structures. pIC50: −log10 of the molar value. Active and inactive are the calls of the source. No cut-off for these calls is given here.

Regarding `O=C(O)Cc1ccccc1Nc1c(Cl)cccc1Cl`, the outcome in experiment [1] was Active.
The same measure, in the same setting: as for `CC(C)Cc1ccc(C(C)C(=O)O)cc1` (stereo not given), the entry is “Active”.
In the case of `O=C(c1ccccc1)c1ccc2n1CCC2C(=O)O` (racemic) [KETOROLAC TROMETHAMINE], the result in experiment [1] was Active. Moreover, the values for the pIC50 in experiment [2] and in experiment [3] were 6.92 and 4.22, respectively.

For the origin of these results see ChEMBL document CHEMBL2034951 (J Med Chem, 2011).
